Results: patent US8088822B2, “Use of fenretinide or bioactive derivatives thereof and pharmaceutical compositions comprising the same” (priority 2008, dated 2012)

Tests used:
[1] = test system: HL60 cells; assay: Annexin V apoptosis assay in proliferating and serum-deprived quiescent HL60 cells; type: cell-based; conditions: 24 h
Experimental: (§1) HL60 cells were cultured in RPMI 1640 supplemented (i) with or (ii) without 10% fetal bovine serum to obtain proliferating and quiescent leukemia cells respectively. Serum-deprived quiescent leukemic cells and proliferating leukemic cells were then cultured in media containing 0.5% FBS, and treated with 1 μM and 2.5 μM fenretinide, and also with chemotherapeutics as controls, 20 μM idarubicin (IDA) and 5 μM cytarabine (Ara-C).
(§2) 2×10^5 cultured cells were used for evaluating apoptosis using an ApoAlert Annexin V-FITC Apoptosis Kit (BD Biosciences). Cells were washed once by PBS, resuspended in 200 μl Annexin-V binding buffer, and then stained with Annexin V-FITC 5 μl, PI 10 μl for 15 min at room temperature in the dark. Cells were subsequently analyzed by flow cytometry.
(§3) To examine the effects of fenretinide on proliferating and quiescent leukemia cells, HL60 cells were chosen as serum deprived quiescent leukemic cell model obtained when incubated in RPMI 1640 without serum for 48 h, with G0/G1 phase cells (being in quiescent state) accounting up to 59.9%. Serum-deprived quiescent leukemic cells and proliferating leukemic cells were then cultured in media containing 0.5% FBS, and treated with 1 μM and 2.5 μM fenretinide, and also with chemotherapeutics as controls, 20 μM idarubicin (IDA) and 5 μM cytarabine (Ara-C). […] Fenretinide induces intracellular production of ROS, lowers mitochondrial transmembrane potential (MTP), and eventually leads to apoptosis in a variety of malignancies. We measured MTP induced by fenretinide in proliferating and quiescent HL60 cells, as examined through rhodamine 123 and propidium iodide staining and followed by flow cytometry analysis. […] We further measured intracellular ROS abundance induced by fenretinide. […] After incubation with 1 μM and 2.5 μM fenretinide for 3 h, the ROS level of proliferating cells increased by 1.77 and 2.6 fold, respectively.

[2] = test system: HL60 cells; assay: Intracellular ROS accumulation, DCFH-DA staining, HL60 cells; type: cell-based; conditions: 3 h; for increase of ROS level: proliferating HL60 cells; for fold change of ROS: quiescent HL60 cells
Experimental: as §1
The intracellular generation of reactive oxygen species (ROS) was measured using of the oxidation-sensitive fluorescent dye 2,7-dichlorofluorescin diacetate (DCFH-DA) (Molecular Probes). After 3 h exposure of fenretinide, 2×10^5 cells were harvested and washed once with PBS, then loaded with 1 ml PBS containing 10 μM of DCFH-DA. The cells were then incubated at 37° C. for 30 min and the fluorescence intensity was measured at 530 nm.
as §3

[3] = test system: CD34+CD38− acute leukemia stem and CD34+CD38+ progenitor population; assay: Apoptosis of acute leukemia (AML and ALL) stem and progenitor subpopulations; type: cell-based, human; conditions: AML and ALL specimens
Experimental: Primitive AML and CML subpopulations (CD34^+ cells) were identified using CD34-PE in combination with CD38-APC, and followed by double-labeling with 7AAD and Annexin V antibodies for apoptosis assessment. The CD34^+ cells were first stained with antibodies against the surface markers CD34-PE and CD38-APC (Beckman Coulter, Fullerton, Calif.) and incubated at room temperature for 15 minutes. Cells were then washed with cold PBS and resuspended in 200 μL annexin V 1×binding buffer (10 mM HEPES/NaOH, pH 7.4, 140 mM NaCl, 2.5 mM CaCl2), 5 μL AnnexinV-FITC (BD Phanningen, San Diego, Calif.) and 7-aminoactinomycin (7-AAD, 0.25 mg/mL) (Molecular Probes, Eugene, Oreg.). Subsequently, the samples were incubated at room temperature for 15 minutes and analyzed by flow cytometry.
Furthermore, we examined whether fenretinide can preferentially target highly quiescent LSCs with CD34^+CD38^− immunophenotyte and leukemia progenitor cells with CD34^+CD38^+ for AML and most ALL specimens. Due to the difficulty of obtaining adequate normal CD34^+CD38^− cells, our apoptosis data of normal specimens came from CD34^− cell populations. Also, we used Ara-C and VCR (vincristine) as controls to test the apoptosis of leukemia stem cells, which were thought to be resistant to these chemotherapeutics.

[4] = test system: XBP-1; assay: RT-PCR of ER stress marker XBP-1 splicing in K562 cells; type: cell-based; conditions: whole time courses
From the text: Real-time quantitative RT-PCR was preformed on ABI7900 thermocycler detection system using SYBR Green I (Applied Biosystems, Foster City, Calif.).
Despite of tremendous efforts (Oridate et al., 1997), mechanisms underlying fenretinide-induced apoptosis are far from clear. In particular, knowledge in terms of how oxidative stress is converted into downstream activities in fenretinide-treated cancer cells is limited. We performed a comprehensive analysis of fenretinide-induced apoptosis in leukemia cell lines through microarray technology integrated robust data mining tool, and techniques of molecular biology. Transcriptome analysis of fenretinide-induced apoptosis in NB4 cells highlighted numerous stress-responsive events at the temporal-spatial level, typifying a process of oxidative stress-mediated apoptosis. Among these prominent events were genes involved in transcriptional regulation, ribosome machinery, oxidative stress, endoplasmic reticulum stress/unfolded protein response (UPR), ubiquitin-proteasome system and apoptosis (FIG. 7A). […] Recently, data have shown that fenretinide may perturb cellular homeostasis and induced ER stress, which may eventually contribute to apoptosis. ER stress is cellular defense mechanism responding to various stimuli including oxidative stressors. […]

[5] = test system: U937; assay: Apoptosis in AML cell line U937; type: cell-based; conditions: U937, within 48 hours, alone or combined
Experimental: as §2
There are two observations that drive us in further exploring alternative therapeutic combinations. As illustrated in Example 6, proteasome inhibitors can potentate fenretinide-induced apoptosis in leukemia. […] The apoptosis rates were quite low when treated alone within 48 hours (nearly 5%), and the number doubled when treated by fenretinide and MG132.

[6] = test system: MKN45; assay: Apoptosis in gastric tumor cell line MKN45 (Rh123/PI, FACS); type: cell-based; conditions: MKN45, 48 hours; 4 μM fenretinide, 5 μM Tet, alone or co-treatment
Experimental: Loss of MTP was evaluated through rhodamine 123 (Rh123) and propidium iodide (PI) staining. 2×10^5 cells were washed by PBS and incubated with 1 μg/ml Rh123 at 37° C. for 30 min. After washed by PBS, 10 μl PI was added to cells for 15 min at room temperature in the dark. Fluorescence emission at 530 nm (representing R123 retention as a function of MTP) was measured with flow cytometry.
Fenretinide induces intracellular ROS and ER stress to activate series of molecular events including apoptotic pathway and such anti-apoptotic pathways as NF-κB cascade. NF-κB can mediate the progression of inflammation-related cancer. […] Unlike fenretinide, Tet is the well-known anti-cancer and anti-inflammation drugs via inhibiting the activity of NF-κB. For example, Tet, as the main effective component of Stephenia tetrandra S Moore, has bioactivities in reversing MDR (multidrug resistance), blocking calcium ion channel and so on. […] FIGS. 19A and 19B show synergistic induction of apoptosis by fenretinide and Tet, as evaluated by Rh123/PI double stain using FACS. […] Through annexin-V/PI double staining, synergistic apoptosis profiles of fenretinide/tetrandrine co-treated MKN45 and SGC7901 cells were also observed (see FIGS. 19C and 19D).

CC1=C(/C=C/C(C)=C/C=C/C(C)=C/C(=O)Nc2ccc(O)cc2)C(C)(C)CCC1 [fenretinide, N-(4-hydroxyphenyl)retinamide]
percentage of apoptotic cells ([1]; proliferating HL60 cells, 1 μM fenretinide): 11.8% | percentage of apoptotic cells ([1]; proliferating HL60 cells, 2.5 μM fenretinide): 36.8% | percentage of apoptotic cells ([1]; serum-deprived quiescent HL60 cells, 1 μM fenretinide): 39.5% | percentage of apoptotic cells ([1]; serum-deprived quiescent HL60 cells, 2.5 μM fenretinide): 52.7% | increase of ROS level ([2]; 1 μM fenretinide): 1.77 fold | increase of ROS level ([2]; 2.5 μM fenretinide): 2.6 fold | fold change of ROS ([2]; 1 μM fenretinide): 3.83 fold | fold change of ROS ([2]; 2.5 μM fenretinide): 4.3 fold | apoptosis in CD34+CD38− acute leukemia stem population versus CD34+CD38+ progenitor population [3]: more apoptosis | splicing of the XBP-1 gene [4]: observable | apoptosis rate [5]: ~5% | apoptosis [6]: 6.2%
